≈ marks a conversion by molar mass, not a printed value. Where two headings read alike, the source gives them in different places.
Key:
clinical strain AK-67 = assay: MIC, microdilution; format: cell-based
Method: (§1) The blaSHV-1, blaTEM-1, blaKPC-2, and blaAmp-C genes were cloned in the pET-28a vector individually, followed by its transformation in Escherichia coli DH5α cells. The MIC values was determined for clinical strains (AK-10, AK-12, AK-18, NP-6, AK-67, and AK-66) and E. coli DH5α cells with selected clones (blaSHV-1, blaTEM-1, blaKPC-2, blaAmp-C, blaCTX-M-15, and blaNDM-1) carrying vectors individually.
(§2) In a series of 2-fold dilutions, E. coli cells were given escalating doses of antibiotics from 0 to 512 μg/mL.

clinical strain AK-66 = assay: MIC, microdilution; format: cell-based
Method: as §1, §2

clinical strain NP-6 = assay: MIC, microdilution; format: cell-based
Method: as §1, §2

clinical strain AK-18 = assay: MIC, microdilution; format: cell-based
Method: as §1, §2

clinical strain AK-10 = assay: MIC, microdilution; format: cell-based
Method: as §1, §2

[1] = tested on: E. coli DH5α cells with blaNDM-1 clone; assay: microbe, parasite or virus in culture; format: cell-based; conditions: Escherichia coli
Method: as §1, §2

[2] = tested on: E. coli DH5α cells with blaCTX-M-15 clone; assay: microbe, parasite or virus in culture; format: cell-based; conditions: Escherichia coli
Method: as §1, §2

[3] = tested on: E. coli DH5α cells with blaKPC-2 clone; assay: microbe, parasite or virus in culture; format: cell-based; conditions: Escherichia coli
Method: as §1, §2

[4] = tested on: E. coli DH5α cells with blaAmp-C clone; assay: microbe, parasite or virus in culture; format: cell-based; conditions: Escherichia coli
Method: as §1, §2

[5] = tested on: E. coli DH5α cells with blaSHV-1 clone; assay: microbe, parasite or virus in culture; format: cell-based; conditions: Escherichia coli
Method: as §1, §2

[6] = tested on: E. coli DH5α cells with blaTEM-1 clone; assay: microbe, parasite or virus in culture; format: cell-based; conditions: Escherichia coli
Method: as §1, §2

CTX-M-15 [7] = target: T1, CTX-M-15 (Escherichia coli, UniProt Q9EXV5); design: method as in PMID 20921316; conditions: cited from earlier work
T1 construct: made in house; host or cells: E. coli (DH5 and BL21(DE3) named)
T1 sequence (Q9EXV5 29-291, species assumed): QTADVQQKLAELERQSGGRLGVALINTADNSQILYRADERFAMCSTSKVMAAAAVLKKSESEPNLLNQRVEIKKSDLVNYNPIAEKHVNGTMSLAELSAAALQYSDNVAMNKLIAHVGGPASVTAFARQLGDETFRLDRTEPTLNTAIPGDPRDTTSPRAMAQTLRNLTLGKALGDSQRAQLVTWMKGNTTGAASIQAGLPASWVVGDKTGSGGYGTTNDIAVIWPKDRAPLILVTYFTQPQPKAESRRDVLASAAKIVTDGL

CTX-M-15 [8] = target: T1, CTX-M-15; assay: Steady-state kinetics of antibiotic hydrolysis with inhibitor; format: biochemical; conditions: inhibitor concentration as per IC50
Method: (§3) The enzyme kinetics parameters (Km, and kcat) for all six proteins/enzymes in combination with different antibiotics (cefotaxime, imipenem, and meropenem), were calculated. The concentration of inhibitors, D63, D2148, and D2573, was as per the IC50 value (Fig. 5); the kinetic parameters are listed in Table 8.
(§4) The steady-state kinetics of all six proteins were determined using the antibiotics:imipenem (Δε295 = −11,500 M^−1 cm^−1), meropenem (Δε297 = −10,940 M^−1 cm^−1), and cefotaxime (Δε264 = −27,250 M^−1 cm^−1). In this study, the D63, D2148, and D2573 inhibitors were tested. Hydrolysis of β-lactam antibiotics was detected by monitoring the variation in absorbance due to cleavage of the β-lactam ring in 50 mM, pH 7.0, phosphate buffer ([40], [41]). For hydrolysis of substrate (cefotaxime, imipenem, and meropenem) kinetics parameters, Km and kcat were calculated by using Michaelis Menten equations (equations 2 and 3). (2) V =Vmax [S]/Km + [S] (3) kcat = Vmax/E where E and S are the enzyme and substrate concentration, Km is the Michaelis-Mentent constant, kcat is the turnover number, and V and Vmax are the initial and maximum velocity of the hydrolysis, respectively.

Amp-C = target: T2, Amp-C (Escherichia coli, UniProt P00811); assay: as above; format: biochemical; conditions: inhibitor concentration as per IC50
T2 construct: made in house; host or cells: E. coli (DH5 and BL21(DE3) named; pET-28a)
T2 sequence (P00811 20-377): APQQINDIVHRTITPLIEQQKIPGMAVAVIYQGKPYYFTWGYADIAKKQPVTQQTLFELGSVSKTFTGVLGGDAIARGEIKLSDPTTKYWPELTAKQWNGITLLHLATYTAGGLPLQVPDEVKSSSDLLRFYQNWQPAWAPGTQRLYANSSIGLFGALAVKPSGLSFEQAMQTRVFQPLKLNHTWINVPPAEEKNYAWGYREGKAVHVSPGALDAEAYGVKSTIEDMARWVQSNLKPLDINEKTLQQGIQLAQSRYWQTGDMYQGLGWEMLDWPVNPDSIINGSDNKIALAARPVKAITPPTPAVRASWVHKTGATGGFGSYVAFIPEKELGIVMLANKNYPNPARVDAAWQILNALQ
Method: as §3, §4

TEM-1 = target: T3, TEM-1 (Escherichia coli, UniProt P62593); assay: as above; format: biochemical; conditions: inhibitor concentration as per IC50
T3 construct: made in house; host or cells: E. coli (DH5 and BL21(DE3) named; pET-28a)
T3 sequence (P62593 24-286 limits assumed): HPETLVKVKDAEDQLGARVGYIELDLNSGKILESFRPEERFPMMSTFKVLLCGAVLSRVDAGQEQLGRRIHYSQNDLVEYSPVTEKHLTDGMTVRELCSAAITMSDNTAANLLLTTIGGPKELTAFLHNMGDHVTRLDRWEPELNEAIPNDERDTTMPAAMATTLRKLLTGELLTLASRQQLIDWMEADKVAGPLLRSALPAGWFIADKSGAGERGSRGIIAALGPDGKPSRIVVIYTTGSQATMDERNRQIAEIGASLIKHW
Method: as §3, §4

SHV-1 = target: T4, SHV-1 (Klebsiella pneumoniae, UniProt P0AD64); assay: as above; format: biochemical; conditions: inhibitor concentration as per IC50
T4 construct: made in house; host or cells: E. coli (DH5 and BL21(DE3) named; pET-28a)
T4 sequence (P0AD64 22-286): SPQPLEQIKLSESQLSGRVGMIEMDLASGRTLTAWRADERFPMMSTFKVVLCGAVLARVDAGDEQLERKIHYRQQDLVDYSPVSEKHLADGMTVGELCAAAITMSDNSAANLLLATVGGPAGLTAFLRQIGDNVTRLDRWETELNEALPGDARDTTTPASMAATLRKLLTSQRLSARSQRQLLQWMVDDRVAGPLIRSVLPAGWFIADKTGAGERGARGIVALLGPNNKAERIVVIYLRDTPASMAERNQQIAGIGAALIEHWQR
Method: as §3, §4

NDM-1 = target: T5, NDM-1 (Klebsiella pneumoniae, UniProt C7C422); assay: as above; format: biochemical; conditions: inhibitor concentration as per IC50
T5 construct: made in house; host or cells: E. coli (DH5 and BL21(DE3) named)
T5 sequence (C7C422 29-270, looked up, species assumed): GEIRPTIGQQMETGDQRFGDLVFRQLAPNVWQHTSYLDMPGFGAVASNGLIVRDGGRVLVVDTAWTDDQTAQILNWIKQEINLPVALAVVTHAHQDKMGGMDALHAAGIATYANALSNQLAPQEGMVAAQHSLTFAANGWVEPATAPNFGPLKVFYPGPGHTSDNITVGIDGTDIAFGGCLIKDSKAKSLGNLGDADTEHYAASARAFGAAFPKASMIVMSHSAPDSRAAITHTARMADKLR
Method: as §3, §4

KPC-2 = target: T6, KPC-2 (Klebsiella pneumoniae, UniProt Q9F663); assay: as above; format: biochemical; conditions: inhibitor concentration as per IC50
T6 construct: made in house; host or cells: E. coli (DH5 and BL21(DE3) named; pET-28a)
T6 sequence (Q9F663 25-293, looked up, species assumed): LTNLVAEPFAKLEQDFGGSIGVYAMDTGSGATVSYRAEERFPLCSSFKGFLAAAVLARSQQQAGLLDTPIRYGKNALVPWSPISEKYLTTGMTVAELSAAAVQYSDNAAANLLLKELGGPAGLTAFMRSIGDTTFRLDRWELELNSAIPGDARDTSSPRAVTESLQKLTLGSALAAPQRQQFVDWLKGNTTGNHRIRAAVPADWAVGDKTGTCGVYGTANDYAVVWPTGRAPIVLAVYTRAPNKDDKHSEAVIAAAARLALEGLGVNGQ
Method: as §3, §4

[9] = clinical strain AK-66, read-out: MIC

CO/N=C(\C(=O)N[C@@H]1C(=O)N2C(C(=O)O)=C(COC(C)=O)CS[C@H]12)c1csc(N)n1 [Cefotaxime]
MIC (clinical strain AK-67): 512 µg/mL (≈ 1120 µM) | MIC (clinical strain AK-66): 512 µg/mL (≈ 1120 µM) | MIC (clinical strain NP-6): 16 µg/mL (≈ 35.1 µM) | MIC (clinical strain AK-18): 32 µg/mL (≈ 70.3 µM) | MIC (clinical strain AK-10): 1020 µg/mL (≈ 2250 µM) | MIC [1]: 256 µg/mL (≈ 562 µM) | MIC [2]: 512 µg/mL (≈ 1120 µM) | MIC [3]: 2 µg/mL (≈ 4.39 µM) | MIC [4]: 2 µg/mL (≈ 4.39 µM) | MIC [5]: 4 µg/mL (≈ 8.78 µM) | MIC [6]: 2 µg/mL (≈ 4.39 µM)

C[C@@H](O)[C@H]1C(=O)N2C(C(=O)O)=C(SCCN=CN)C[C@H]12 [Imipenem]
MIC (clinical strain AK-66; [9]): 1020 µg/mL (≈ 3420 µM) | MIC (clinical strain NP-6): 64 µg/mL (≈ 214 µM) | MIC (clinical strain AK-10): 128 µg/mL (≈ 428 µM) | MIC [1]: 512 µg/mL (≈ 1710 µM) | MIC [2]: 32 µg/mL (≈ 107 µM) | MIC [3]: 16 µg/mL (≈ 53.4 µM) | MIC [4]: 16 µg/mL (≈ 53.4 µM) | MIC [5]: 16 µg/mL (≈ 53.4 µM) | MIC [6]: 16 µg/mL (≈ 53.4 µM)

CO[C@@]1(NC(=O)Cc2cccs2)C(=O)N2C(C(=O)O)=C(COC(N)=O)CS[C@@H]21 [Cefoxitin]
MIC (clinical strain AK-66; [9]): 64 µg/mL (≈ 150 µM) | MIC (clinical strain NP-6): 64 µg/mL (≈ 150 µM) | MIC [1]: 32 µg/mL (≈ 74.9 µM) | MIC [2]: 32 µg/mL (≈ 74.9 µM) | MIC [3]: 32 µg/mL (≈ 74.9 µM) | MIC [4]: 32 µg/mL (≈ 74.9 µM) | MIC [5]: 32 µg/mL (≈ 74.9 µM) | MIC [6]: 32 µg/mL (≈ 74.9 µM)

C[C@@H](O)[C@H]1C(=O)N2C(C(=O)O)=C(S[C@@H]3CN[C@H](C(=O)N(C)C)C3)[C@H](C)[C@H]12 [Meropenem]
MIC (clinical strain AK-66; [9]): 1020 µg/mL (≈ 2670 µM) | MIC (clinical strain NP-6): 16 µg/mL (≈ 41.7 µM) | MIC (clinical strain AK-18): 32 µg/mL (≈ 83.4 µM) | MIC (clinical strain AK-10): 32 µg/mL (≈ 83.4 µM) | MIC [1]: 1020 µg/mL (≈ 2670 µM) | MIC [2]: 2 µg/mL (≈ 5.22 µM) | MIC [3]: 2 µg/mL (≈ 5.22 µM) | MIC [4]: 4 µg/mL (≈ 10.4 µM) | MIC [5]: 2 µg/mL (≈ 5.22 µM) | MIC [6]: 2 µg/mL (≈ 5.22 µM)

NC(=O)[C@@H]1CC[C@@H]2CN1C(=O)N2OS(=O)(=O)O [Avibactam, reference compound]
IC50 (CTX-M-15 [7]): 5 nM | Km or Ki (CTX-M-15 [8]; cefotaxime): 2047 μΜ | kcat (CTX-M-15 [8]; cefotaxime): 1.858 S^−1 | Km or Ki (CTX-M-15 [8]; imipenem): 2,918 μΜ | kcat (CTX-M-15 [8]; imipenem): 0.4807 S^−1 | Km or Ki (CTX-M-15 [8]; meropenem): 745.5 μΜ | kcat (CTX-M-15 [8]; meropenem): 1.566 S^−1 | Km or Ki (Amp-C; cefotaxime): 1,199 μΜ | kcat (Amp-C; cefotaxime): 1.417 S^−1 | Km or Ki (Amp-C; imipenem): 321 μΜ | kcat (Amp-C; imipenem): 0.861 S^−1 | Km or Ki (Amp-C; meropenem): 1,442 μΜ | kcat (Amp-C; meropenem): 2.213 S^−1 | Km or Ki (TEM-1; cefotaxime): 1,558 μΜ | kcat (TEM-1; cefotaxime): 1.339 S^−1 | Km or Ki (TEM-1; imipenem): 2,918 μΜ | kcat (TEM-1; imipenem): 1.107 S^−1 | Km or Ki (TEM-1; meropenem): 12,315 μΜ | kcat (TEM-1; meropenem): 5.916 S^−1 | Km or Ki (SHV-1; cefotaxime): 1,201 μΜ | kcat (SHV-1; cefotaxime): 0.6119 S^−1 | Km or Ki (SHV-1; imipenem): 835.4 μΜ | kcat (SHV-1; imipenem): 0.5531 S^−1 | Km or Ki (SHV-1; meropenem): 532 μΜ | kcat (SHV-1; meropenem): 0.4803 S^−1 | Km or Ki (NDM-1; cefotaxime): 212.2 μΜ | kcat (NDM-1; cefotaxime): 1.036 S^−1 | Km or Ki (NDM-1; imipenem): 615.5 μΜ | kcat (NDM-1; imipenem): 2.194 S^−1 | Km or Ki (NDM-1; meropenem): 440.9 μΜ | kcat (NDM-1; meropenem): 1.268 S^−1 | Km or Ki (KPC-2; cefotaxime): 1299 μΜ | kcat (KPC-2; cefotaxime): 0.549 S^−1 | Km or Ki (KPC-2; imipenem): 2,637 μΜ | kcat (KPC-2; imipenem): 1.499 S^−1 | Km or Ki (KPC-2; meropenem): 1,740 μΜ | kcat (KPC-2; meropenem): 0.72 S^−1

From article PMC9603770, “Broad-Spectrum Inhibitors against Class A, B, and C Type β-Lactamases to Block the Hydrolysis against Antibiotics: Kinetics and Structural Characterization” (Microbiology Spectrum, 2022)
